Data as given in the supplement of paper PMC11208160.

Test: recombinant UMI read abundance after kanamycin selection (control-corrected) (log10(CPM+1)); higher = more efficient recombination; extreme values may be limits of the assay; sequences stand for … in AGTGCAGAGAAAATCGGCCAGTTTTCTCTGCCTGCAGTCCGCATGCCGTGGGACCCCTTGGGTTCTAACCTGTTGCCTAGATTTATGCAGCGGACTGCCTTTCTCCCAAAGTGATAAACCGG…AGGTTGGTTTCACT; site = the 11-nt donor
In short: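 Sequenced counts of recombinant UMIs were turned into CPM, averaged across replicates and scaled with control-derived factors. The reported figure is log10(CPM+1). Those UMIs, each 12 nt long, tagged donor and donor-binding-loop pairs on a plasmid with a promoterless kanamycin gene, screened as a pool in Escherichia coli with IPTG (0.07 mM) plus kanamycin or without selection.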
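Note: IS621 bridge recombinase in Escherichia coli cells against a fixed T5 target plasmid.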

Sequence	recombinant UMI read abundance (log10)
CTCTATACATGGACCGGTTTTCCCGGTAATCCGTATTTGCT (site CTCTAGACTAG)	0
CTCTATACATGGACCGGTTTTCCCGGTAATCCGTATTTGCT (site CTCTATACTAG)	2.08
CTCTCTACATGGACCGGTTTTCCCGGTAATCCGTATTTGAG (site CTCACTACTCT)	0.0192
CTCTCTACATGGACCGGTTTTCCCGGTAATCCGTATTTGAG (site CTCCCTACTCT)	0.00919
CTCTCTACATGGACCGGTTTTCCCGGTAATCCGTATTTGAG (site CTCGCTACTCT)	0.00461
CTCTCTACATGGACCGGTTTTCCCGGTAATCCGTATTTGAG (site CTCTCTACTCT)	0.0107
CTCTGTTCATGGACCGGTTTTCCCGGTAATCCGTATTTGCC (site CTCTGTTCTGG)	1.45
CTCTTCACATGGACCGGTTTTCCCGGTAATCCGTATTTGGC (site CTCTTCACTGC)	2.73
CTGAAAACATGGACCGGTTTTCCCGGTAATCCGTATTTGCA (site CTGAAAACTTG)	1.48
CTGAAAACATGGACCGGTTTTCCCGGTAATCCGTATTTGCA (site CTGCAAACTTG)	0
CTGAAAACATGGACCGGTTTTCCCGGTAATCCGTATTTGCA (site CTGGAAACTTG)	0
CTGAAAACATGGACCGGTTTTCCCGGTAATCCGTATTTGCA (site CTGTAAACTTG)	0
CTGAATCCATGGACCGGTTTTCCCGGTAATCCGTATTTGTT (site CAGAATCCTAA)	0.0107
CTGAATCCATGGACCGGTTTTCCCGGTAATCCGTATTTGTT (site CCGAATCCTAA)	0
CTGAATCCATGGACCGGTTTTCCCGGTAATCCGTATTTGTT (site CGGAATCCTAA)	0
CTGAATCCATGGACCGGTTTTCCCGGTAATCCGTATTTGTT (site CTGAATCCTAA)	1.5
CTGAATGCATGGACCGGTTTTCCCGGTAATCCGTATTTGTT (site CGGAATCCTAA)	0.00219
CTGAATGCATGGACCGGTTTTCCCGGTAATCCGTATTTGTT (site CTGAATGCTAA)	1.94
CTGCATACATGGACCGGTTTTCCCGGTAATCCGTATTTGTA (site CTGCATACTTA)	1.59

Sequence	recombinant UMI read abundance (log10)
CTGCCGACATGGACCGGTTTTCCCGGTAATCCGTATTTGCG (site CTGCCGACTCG)	1.83
CTGCTAACATGGACCGGTTTTCCCGGTAATCCGTATTTGGA (site CTACTAACTTC)	1.16
CTGCTAACATGGACCGGTTTTCCCGGTAATCCGTATTTGGA (site CTCCTAACTTC)	0.394
CTGCTAACATGGACCGGTTTTCCCGGTAATCCGTATTTGGA (site CTGCTAACTTC)	1.62
CTGCTAACATGGACCGGTTTTCCCGGTAATCCGTATTTGGA (site CTTCTAACTTC)	0.563
CTGCTCACATGGACCGGTTTTCCCGGTAATCCGTATTTGCC (site CTGCTCACTGG)	2.59
CTGGAGTCATGGACCGGTTTTCCCGGTAATCCGTATTTGCC (site CAGGAGTCTGG)	2.88
CTGGAGTCATGGACCGGTTTTCCCGGTAATCCGTATTTGCC (site CCGGAGTCTGG)	1.26
CTGGAGTCATGGACCGGTTTTCCCGGTAATCCGTATTTGCC (site CGGGAGTCTGG)	0
CTGGAGTCATGGACCGGTTTTCCCGGTAATCCGTATTTGCC (site CTGGAGTCTGG)	2.84
CTGGCATCATGGACCGGTTTTCCCGGTAATCCGTATTTGAC (site CTAGTATCTGT)	0
CTGGCATCATGGACCGGTTTTCCCGGTAATCCGTATTTGAC (site CTGGCATCTGT)	1.53
CTGGCTCCATGGACCGGTTTTCCCGGTAATCCGTATTTGGC (site CTGGCTCCTGC)	0.763
CTGGCTGCATGGACCGGTTTTCCCGGTAATCCGTATTTGGT (site CTGGCTGCTAC)	1.7
CTGGGCACATGGACCGGTTTTCCCGGTAATCCGTATTTGAG (site CTGGGCACTCT)	0.567
CTGGTAGCATGGACCGGTTTTCCCGGTAATCCGTATTTGAC (site CTAGTATCTGT)	1.68
CTGGTAGCATGGACCGGTTTTCCCGGTAATCCGTATTTGAC (site CTGGTAGCTGT)	2.85
CTGGTGGCATGGACCGGTTTTCCCGGTAATCCGTATTTGTT (site CTGGTGGCTAA)	0.723
CTGGTTTCATGGACCGGTTTTCCCGGTAATCCGTATTTGAC (site CTAGTATCTGT)	0.542

Sequence	recombinant UMI read abundance (log10)
CTGGTTTCATGGACCGGTTTTCCCGGTAATCCGTATTTGAC (site CTGGTTTCTGT)	1.87
CTGTAATCATGGACCGGTTTTCCCGGTAATCCGTATTTGTG (site CTGTAATCTCA)	2.52
CTGTACACATGGACCGGTTTTCCCGGTAATCCGTATTTGCT (site CTATACACTAG)	2.55
CTGTACACATGGACCGGTTTTCCCGGTAATCCGTATTTGCT (site CTCTACACTAG)	1.52
CTGTACACATGGACCGGTTTTCCCGGTAATCCGTATTTGCT (site CTGTACACTAG)	2.51
CTGTACACATGGACCGGTTTTCCCGGTAATCCGTATTTGCT (site CTTTACACTAG)	0.828
CTGTACGCATGGACCGGTTTTCCCGGTAATCCGTATTTGTC (site CTGTACGCTGA)	2.56
CTGTCGCCATGGACCGGTTTTCCCGGTAATCCGTATTTGCA (site CTGTCGCCTTG)	0
CTGTCGTCATGGACCGGTTTTCCCGGTAATCCGTATTTGTG (site CTGTCGTCTCA)	0.831
CTGTGACCATGGACCGGTTTTCCCGGTAATCCGTATTTGTA (site CTGTGACCTTA)	0.00405
CTGTGCCCATGGACCGGTTTTCCCGGTAATCCGTATTTGAG (site CTGTGCCCTCT)	0.0219
CTGTGCCCATGGACCGGTTTTCCCGGTAATCCGTATTTGCC (site CTGTGCCCTGG)	1.34
CTGTTAGCATGGACCGGTTTTCCCGGTAATCCGTATTTGTG (site CAGTTAGCTCA)	0.669
CTGTTAGCATGGACCGGTTTTCCCGGTAATCCGTATTTGTG (site CCGTTAGCTCA)	0.102
CTGTTAGCATGGACCGGTTTTCCCGGTAATCCGTATTTGTG (site CGGTTAGCTCA)	0.0126
CTGTTAGCATGGACCGGTTTTCCCGGTAATCCGTATTTGTG (site CTGTTAGCTCA)	2.07
CTGTTCGCATGGACCGGTTTTCCCGGTAATCCGTATTTGTA (site CTGTTCGCTTA)	2.09
CTGTTGCCATGGACCGGTTTTCCCGGTAATCCGTATTTGAC (site CTGTTGCCTGT)	0
CTTAAAGCATGGACCGGTTTTCCCGGTAATCCGTATTTGAT (site CATAAAGCTAT)	0
